Source: patent US20230192683A1, “FUSED RING COMPOUNDS, PREPARATION METHOD THEREFOR, PHARMACEUTICAL COMPOSITIONS AND USE THEREOF” (priority 2020, published 2023)
Counter-ions that a name gives are not always drawn. Marks after values point to notes of the source that are not given here.

Key:
human SSTR4 = biological target: T1, human SSTR4 (Homo sapiens, UniProt P31391); test: cell-based human SSTR4 cAMP assay (agonist activity); conditions: SSTR4, EC50 (nM), Flp-In-CHO-SSTR4 stable pool, Forskolin-stimulated cAMP
T1 construct: expressed in transfected cells
Description: Purpose of test: A cell-based human SSTR4 cAMP assay was used to determine the agonistic effect of the test compound on an SSTR 4 receptor.
Cell culture and reagent preparation: cell line: Flp-In-CHO-SSTR4 stable pool; complete medium: Ham’s F-12 K + 10% FBS + 1 × penicillin-streptomycin (PS) + 600 µg/ml hygromycin B; cell seeding medium: Ham’s F-12K + 10% FBS; assay buffer: 1 × HBSS + 20 mM HEPES + 0.1%BSA + 500 uM IBMX.
The Flp-In-CHO-SSTR 4 stable pool cell line was cultured in a complete medium at 37° C., 5% CO2 until a confluency of 70% to 90%.
After TrypLE digestion, the cells were resuspended in the seeding medium and seeded in a 384-well cell culture plate (384 PE culture plate), with 7,000 cells per well, and were cultured overnight at 37° C., 5% CO2.
The cell culture plate was taken out, inverted at 200 g at room temperature for 5 s to remove the medium, then quickly filled with 15 µl of an experimental buffer to each experimental well, and centrifuged at 200 g at room temperature for 5 s.
2.5 µl of the 8x compound working solution diluted in step 3 was added to corresponding test wells, which were centrifuged at 200 g for 5 s at room temperature, and incubated at 37° C. for 10 min.
A 4 uM Forskolin working solution (8x) was prepared.
The cell plate was taken out and equilibrated to room temperature, then filled with 2.5 µl of the 8x Forskolin working solution prepared in step 6 to corresponding test wells, followed by RT at 200 g for 5 s, and left to stand at 37° C. for 30 min.
A Eu-cAMP tracer and Uliaght-anti-cAMP were freeze-thawed, the Eu-cAMP tracer was diluted 50-fold with a detection buffer, and the Uliaght-anti-cAMP was dilutd 150-fold.
10 µl of the Eu-cAMP tracer was added to all experimental wells, then 10 µl of the detection buffer was added to NC wells, and 10 µl of the Uliaght-anti-cAMP was added to the remaining experimental wells.
The reaction plate was centrifuged at 200 g for 30 s at room temperature, and after standing at 25° C. for 1 h, data was collected using Envision.
Compound EC50 was calculated using a GraphPad nonlinear fitting formula: […]
X: Compound concentration log value; Y: HTRF ratio

[1] = metabolic stability in pooled human liver microsomes; conditions: pH 7.4
Description: (§1) Metabolic degradation of a test compound was analyzed using pooled human liver microsomes and male rat liver microsomes, respectively, at 37° C.
(§2) After pre-incubation at 37° C. for 5 min, NADPH (5 mM, 60 µL) was added to initiate a reaction. A fixed volume of the reaction mixture (30 µL) was sampled into the solution at fixed time points (0, 5, 15, 30, 60 min) to quench the reaction. After centrifugation (4000 rpm, 15 min), the supernatant (100 µL) was mixed with distilled water (100 µL) and then subjected to LC-MS/MS analysis to test the amount of the compound. A half-life was calculated using a first-order reaction kinetic equation (Ct = C0 × e^-ket, T½ = Ln2/ke).

[2] = metabolic stability in male rat liver microsomes; conditions: pH 7.4
Description: as §1, §2

rat CFA pain model [3] = test: multi-dose oral pharmacodynamic study in rat CFA pain model (Von Frey PWT); type: in vivo
Description: The efficacy of Compound 1a and Compound 14 in the rat CFA pain model was evaluated using a mechanical allodynia method.
SD rats, 72 males, divided into 9 groups, were purchased from Beijing Vital River Laboratory Animal Technology Co., Ltd.
The experimental animals were adaptively reared for 3 to 7 days, and 8 of them were selected as a normal control group, and the other animals were injected with 50 µL of CFA in the center of the left hind paw for modeling. 24 hours after injection, the animals were tested for paw withdrawal threshold (PWT) basal values, and were divided into groups according to the basal values, which were solvent control group, indomethacin group, Compound 1a, 10 mpk group, Compound 1a, 30 mpk group, Compound 1a, 100 mpk group, Compound 14, 3 mpk group, Compound 14, 10 mpk group, and Compound 14, 30 mpk group, with 8 animals in each group. Subsequently, the animals were weighed and administered orally according to Table 6. All the animals were tested for paw withdrawal thresholds (PWT) using Von Frey 1, 2, and 4 hours after administration to further evaluate the efficacy of the compounds of the present invention.

rat CFA pain model [4] = test: single-dose pharmacodynamic study in rat CFA pain model (Von Frey PWT); type: in vivo
Description: Each male SD rat (7-8 weeks old) was injected with 50 microliters of CFA in the center of the left hind paw. A PWT basal value test was conducted 24 hours after modeling, and the drugs were administered after randomization.
There were 8 animals in each group, and the animals were weighed and administered according to Table 4.
For all groups of animals, paw withdrawal thresholds (PWTs) of the animals were tested using Von Frey after 1 h and 3 h of single administration.

T1 sequence (P31391 whole entry): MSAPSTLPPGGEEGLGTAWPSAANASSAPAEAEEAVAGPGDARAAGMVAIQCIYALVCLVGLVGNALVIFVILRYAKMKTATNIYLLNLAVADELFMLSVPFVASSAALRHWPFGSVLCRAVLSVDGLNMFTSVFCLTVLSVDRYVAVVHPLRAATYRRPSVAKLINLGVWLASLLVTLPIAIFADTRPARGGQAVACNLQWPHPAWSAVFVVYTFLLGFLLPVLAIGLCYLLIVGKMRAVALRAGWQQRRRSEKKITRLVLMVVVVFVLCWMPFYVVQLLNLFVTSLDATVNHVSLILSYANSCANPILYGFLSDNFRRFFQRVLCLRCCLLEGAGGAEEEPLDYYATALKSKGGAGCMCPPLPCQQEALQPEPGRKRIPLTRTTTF

| SMILES | EC50 (human SSTR4) | also measured |
| --- | --- | --- |
| CSc1cccn2c(C(C)(C)NC(=O)C3C4CNCC43C)ncc12 (single isomer, unassigned) [Compound 5-P1, 1-Methyl-N-(2-(8-(Methylthio)Imidazo[1,5-a]Pyridin-3-yl)Propan-2-yl)-3-Azabicyclo[3.1.0]Hexane-6-Carboxamide] | 1.25 nM |  |
| CSc1cccn2c(C(C)(C)NC(=O)C3C4CNCC43C)ncc12 (single isomer, unassigned) [Compound 5-P2, 1-methyl-N-(2-(8-(methylthio)imidazo[1,5-a]pyridin-3-yl)propan-2-yl)-3-azabicyclo[3.1.0]hexane-6-carboxamide] | 0.41 nM |  |
| CSc1cccn2c(C(C)(C)NC(=O)[C@H]3[C@@H]4CNC[C@@H]43)ncc12.Cl [Compound 1, (1R,5S,6R)-N-(2-(8-(Methylthio)Imidazo[1,5-a]Pyridin-3-yl)Prop-2-yl)-3-Azabicyclo[3.1.0]Hexane-6-Carboxamide Hydrochloride] | 0.15 nM | half-life at 1 µM ([1]; microsomes): > 3.11 h; half-life at 1 µM ([2]; microsomes): > 3.11 h |
| CC(C)(CSc1ccccc1C(F)(F)F)NC(=O)[C@H]1[C@@H]2CNC[C@@H]21 [Compound 2, (1R,5S,6R)-N-(2-Methyl-1-((2-(Trifluoromethyl)Phenyl)Thio)Prop-2-yl)-3-Azabicyclo[3.1.0]Hexane-6-Carboxamide Formate] | 6.77 nM |  |
| CC(C)(NC(=O)[C@H]1[C@@H]2CNC[C@@H]21)c1ncc2c(SC3CCCC3)cccn12 [Compound 3, (1R,SS,6R)-N(2-(8-(Cyclopentylthio)Imidazo[1,5-a]Pyridin-3-yl)Prop-2-yl)-3-Azabicyclo[3.1.0]Hexane-6-Carboxamide] | 10.5 nM |  |
| CC(C)(NC(=O)[C@H]1[C@@H]2CNC[C@@H]21)c1ncc2c(Sc3nccs3)cccn12 [Compound 4, (1R,5S,6R)-N-(2-(8-(Thiazol-2-Ylsulfanyl)Imidazo[1,5-a]Pyridin-3-yl)Prop-2-yl)-3-Azabicyclo[3.1.0]Hexane-6-Carboxamide] | 36.7 nM |  |
| CCSc1cccn2c(C(C)(C)NC(=O)[C@H]3[C@@H]4CNC[C@@H]43)ncc12 [Compound 6, (1R,5S,6R)-N-(2-(8-(Ethylthio)Imidazo[1,5-a]Pyridin-3-yl)Prop-2-yl)-3-Azabicyclo[3.1.0]Hexane-6-Carboxamide Hydrochloride] | 0.73 nM |  |
| CC(C)Sc1cccn2c(C(C)(C)NC(=O)[C@H]3[C@@H]4CNC[C@@H]43)ncc12 [Compound 7, (1R,5S,6R)-N-(2-(8-(Isopropylthio)Imidazo[1,5-a]Pyridin-3-yl)Prop-2-yl)-3-Azabicyclo[3.1.0]Hexane-6-Carboxamide] | 3.29 nM |  |
| CC(C)(NC(=O)[C@H]1[C@@H]2CNC[C@@H]21)c1ncc2c(SCC3CC3)cccn12 [Compound 8, (1R,5S,6R)-N-(2-(8-((Cyclopropylmethyl)Thio)Imidazo[1,5-a]Pyridin-3-yl)Propan-2-yl)-3-Azabicyclo[3.1.0]Hexane-6-Carboxamide] | 0.5 nM |  |
| CC(C)(NC(=O)[C@H]1[C@@H]2CNC[C@@H]21)c1ncc2c(SCc3ccccc3)cccn12 [Compound 9, (1R,5S,6R)-N-(2-(8-(Benzylthio)Imidazo[1,5-a]Pyridin-3-yl)Prop-2-yl)-3-Azabicyclo[3.1.0]Hexane-6-Carboxamide] | 3.42 nM |  |
| CC(C)CSc1cccn2c(C(C)(C)NC(=O)[C@H]3[C@@H]4CNC[C@@H]43)ncc12 [Compound 10, (1R,5S,6R)-N-(2-(8-(Isobutylthio)Imidazo[1,5-a]Pyridin-3-yl)Prop-2-yl)-3-Azabicyclo[3.1.0]Hexane-6-Carboxamide] | 7.89 nM |  |
| CC(C)(NC(=O)[C@H]1[C@@H]2CNC[C@@H]21)c1ncc2c(SCC3CCC3)cccn12 [Compound 11, (1R,5S,6R)-N-(2-(8-((Cyclobutylmethyl)Thio)Imidazo[1,5-a]Pyridin-3-yl)Propan-2-yl)-3-Azabicyclo[3.1.0]Hexane-6-Carboxamide] | 2.47 nM |  |
| CC(C)(NC(=O)[C@H]1[C@@H]2CNC[C@@H]21)c1ncc2c(SC3CCC3)cccn12 [Compound 12, (1R,5S,6R)-N-(2-(8-(Cyclobutylthio)Imidazo[1,5-a]Pyridin-3-yl)Prop-2-yl)-3-Azabicyclo[3.1.0]Hexane-6-Carboxamide] | 1.83 nM |  |
| CC(C)(NC(=O)[C@H]1[C@@H]2CNC[C@@H]21)c1ncc2c(SCC3CCCC3)cccn12 [Compound 13, (1R,5S,6R)-N-(2-(8-((Cyclopentylmethyl)Thio)Imidazo[1,5-a]Pyridin-3-yl)Propan-2-yl)-3-Azabicyclo[3.1.0]Hexane-6-Carboxamide] | 7.58 nM |  |
| CSc1cccc2c(C(C)(C)NC(=O)[C@H]3[C@@H]4CNC[C@@H]43)n[nH]c12 [Compound 15, (1R,5S,6R)-N-(2-(7-(Methylthio)-1H-Indazol-3-yl)Propan-2-yl)-3-Azabicyclo[3.1.0]Hexane-6-Carboxamide] | 0.046 nM | half-life at 1 µM ([1]; pooled human liver microsomes): > 3.11 h; half-life at 1 µM ([2]; rat liver microsomes): > 3.11 h |
| CSc1ccccc1C(C)(C)NC(=O)[C@H]1[C@@H]2CNC[C@@H]21 [Compound 16, (1R,5S,6R)-N-(2-(2-(Methylthio)Phenyl)Propan-2-yl)-3-Azabicyclo[3.1.0]Hexane-6-Carboxamide] | 1.25 nM |  |
| CSc1nc(C(C)(C)NC(=O)[C@H]2[C@@H]3CNC[C@@H]32)n2cccc(C)c12 [Compound 17, (1R,5S,6R)-N-(2-(8-Methyl-1-(Methylthio)Imidazo[1,5-a]Pyridin-3-yl)Propan-2-yl)-3-Azabicyclo[3.1.0]Hexane-6-Carboxamide] | 0.068 nM | half-life at 1 µM ([1]; pooled human liver microsomes): > 3.11 h; half-life at 1 µM ([2]; rat liver microsomes): > 3.11 h |
| COc1ccc2c(c1)c(CC(=O)O)c(C)n2C(=O)c1ccc(Cl)cc1 [Indomethacin, reference compound] |  | Paw withdrawal threshold (PWT(g)) (average) 0 hours (rat CFA pain model [3]; 30 mg/kg oral group, 0 hours): 3.012 g; inhibition of CFA-induced mechanical allodynia (in words) (rat CFA pain model [3]; 30 mg/kg oral, 2 and 4 hours after administration, FIG. 2): significantly inhibited; Paw withdrawal threshold (PWT(g)) (average) 1 hour (rat CFA pain model [3]; 30 mg/kg oral, 1 hour): 4.461 g; Paw withdrawal threshold (PWT(g)) (average) 2 hours (rat CFA pain model [3]; 30 mg/kg oral, 2 hours): 7.486 ** g; Paw withdrawal threshold (PWT(g)) (average) 4 hours (rat CFA pain model [3]; 30 mg/kg oral, 4 hours): 6.813 ** g; Mechanical allodynia test (PWT (g), mean) Baseline (rat CFA pain model [4]; 30 mg/kg P.O. group, baseline 24 h after CFA, before administration): 3.554 g; Mechanical allodynia test (PWT (g), mean) 1 hour (rat CFA pain model [4]; 30 mg/kg P.O., 1 hour after single administration): 4.448 g; inhibition of CFA-induced mechanical allodynia (in words) (rat CFA pain model [4]; 30 mg/kg P.O., 3 hours after administration, FIG. 1): significantly inhibit; Mechanical allodynia test (PWT (g), mean) 3 hours (rat CFA pain model [4]; 30 mg/kg P.O., 3 hours after single administration): 10.360 **** #### g |
